Results taken from patent publication US20070142480A1, “Alleviation of pain in osteoarthritis by means of intra-articular implantation of perfluorodecalin” (priority 2005, published 2007).

Experiments:
[1] = cited from earlier work
[2] = cited from earlier work; remark: listed apart in the source
[3] = test system: patients with symptomatic knee OA; assay: single group, open-label study of weekly intra-articular injections in outpatients with symptomatic knee OA; format: in vivo, human; details: for WOMAC score: baseline 5±2, p<0.001
Experimental: The efficacy of treatment was determined by a validated clinical test method and side effects recorded. This was a single group, open-label study, including outpatients of both sexes, aged between 18 and 85 years, with symptomatic knee OA. All patients (25) underwent weekly intra-articular injections of perfluorodecalin for 5 consecutive weeks and were followed-up for 10 additional weeks. The safety and tolerability profile (primary end-point) was assessed by adverse event reporting. The secondary endpoint was efficacy evaluated by changes in the Western Ontario and McMaster Universities (WOMAC) score vs. baseline. Patient and physician satisfaction were also recorded.

FC1(F)C(F)(F)C(F)(F)C2(F)C(F)(F)C(F)(F)C(F)(F)C(F)(F)C2(F)C1(F)F (centres unmarked) [Perfluorodecalin]
Vapor pressure at 37° C. ([1]; 37° C.): 14 mm Hg
CO2 solubility [1]: 1400 mL/L
O2 solubility [1]: 490 mL/L
solubility in water and in traditional organic solvents [2]: insoluble
serious treatment-related adverse events ([3]; 25 patients, 5 weekly intra-articular injections, 10 additional weeks follow-up): no serious treatment-related adverse events were reported
most frequent adverse event: pain at the injection site ([3]; 25 patients, weekly intra-articular injections for 5 consecutive weeks): 10 % of the injections
duration of relief of pain, on average ([3]; after intra-articular injection): one week
carry-over effect after the last injection ([3]; based on sustained improvements in WOMAC score and subscores): at least 3 weeks
WOMAC score ([3]; end of the injection series, week 6): 2±1.5
WOMAC subscore 'pain' ([3]; from week 4): significantly reduced
WOMAC subscore 'physical function' ([3]; from week 6): significantly reduced
WOMAC subscore 'stiffness' ([3]; from week 6): significantly reduced
safety and tolerability profile ([3]; intra-articular, adverse event reporting): generally well tolerated
WOMAC score ([3]; within the first 2 weeks of treatment): 3±2
